Measurements reported in patent US20230218606A1, “USE OF 4-AMINOQUINOLINE COMPOUND IN TREATMENT OF CORONAVIRUS INFECTION” (priority 2020, published 2023).
Read-outs that look alike come from different tables or passages of the source.

Assays:
DENV-2 = settings: cited from earlier work
ZIKV = settings: pregnant mice, 40 mg/kg/day intraperitoneally from first day after ZIKV infection, compared to PBS; cited from earlier work
in vitro = settings: African green monkey
Procedure: (§1) The cytotoxicity test of drugs was carried out by using CCK-8 kit (Beyotime). […] The original medium in the 96-well plate was discarded, 100 µL of the drug-containing MEM medium was taken and added to the cells, and three replicate wells were set for each concentration. A vehicle control (adding DMSO and medium to cells in wells, without adding drug) and a blank control (adding DMSO and medium to the wells, without cells) were set up. After the drug was added, the cells were incubated at 37° C. for 48 hours. • ③ 20 µL of CCK-8 solution (Beyotime) was added to the well to be tested, mixed gently without generating bubbles, and incubated subsequently at 37° C. for 2 hours. OD450 was read on a microplate reader (purchased from Molecular Devices, model: SpectraMax M5), and the reading was substituted into the following formula to calculate cell viability: • [formula] • Wherein, A was the reading of the microplate reader.

[1] = test system: Zika virus protease NS2B-NS3; settings: read-out: inhibitory constant Ki; cited from earlier work
SARS-CoV-2 [2] = experiment: Example 3: co-localization of SARS-CoV-2 virus particles with early endosomes or endolysosomes (immunofluorescence); format: cell-based; settings: 50 µM drug, veroE6 cells, MOI of 10, 90 min at 37° C.
Procedure: (at MOI of 10); • 3) the veroE6 cells were washed twice with PBS (purchased from Gibco, Catalog No. C10010500BT) to remove unbound virus particles, freshly pre-warmed MEM culture medium containing 2% FBS was added, and then the veroE6 cells were incubated at 37° C. for 90 min; • 4) the cells were fixed, and the immunofluorescence staining of cells was performed by using anti-virus NP protein antibody (red) (preserved by Wuhan Institute of Virology, Chinese Academy of Sciences) and anti-early endosomal protein EEA antibody (green) (purchased from Cell Signaling Technology, Catalog No. 48453) or anti-lysosomal protein LAMP antibody (green) (purchased from Cell Signaling Technology company, Catalog No. 3243); the nuclei were stained with Hoechst (blue) (purchased from Invitrogen company, Catalog No. H21492); • 5) quantitative analysis of co-localization of virus particles and endosomes of the cells in each group was performed, and co-localization rate was calculated.

SARS-CoV-2 [3] = experiment: microbe, parasite or virus in culture; format: cell-based
Vero-E6 cells = settings: Example 1, all test concentrations
Procedure: as §1

Row | Compound | reduction of DENV-2 virus titer (DENV-2; A549 cell line, 50 to 80 µM) | IC50 (DENV-2; A549 cells, read-out: IC50 for DENV-2 infected cells) | IC50 (DENV-2; Hepa1-6 cells, read-out: IC50 for DENV-2 infected cells) | IC50 (DENV-2; J774A.1 macrophages, read-out: IC50, inhibition of DENV-2 infection of macrophages) | IC50 (DENV-2; WS-1 cells, read-out: IC50 for DENV-2 infected cells) | level of ZIKV infection in placenta (ZIKV) | CC50 at 48 h (in vitro) | Ki [1] | co-localization rate of virus particles and early endosomes (EES) (SARS-CoV-2 [2]) | co-localization rate of virus particles and endolysosomes (ELs) (SARS-CoV-2 [2]) | inhibition of replication of SARS-CoV-2 virus genome in the infected supernatant (SARS-CoV-2 [3]; Example 1, at 50 µM, 16.67 µM and 5.56 µM) | EC50 (SARS-CoV-2 [3]; Severe acute respiratory syndrome coronavirus 2, Vero C1008, 48 h, read-out: half-maximal effective concentration (EC50)) | toxic effect on cells (cell viability) (Vero-E6 cells)
1 | CCN(CCO)CCCC(C)Nc1ccnc2cc(Cl)ccc12 (stereo not drawn) [hydroxychloroquine, 2-[[4-[(7-chloroquinolin-4-yl)amino]pentyl]ethylamino]-ethanol] | 100 times | 10.1 ± 1.6 µM | 12.9 ± 4.2 µM | 9.7 ± 1.3 µM | 12.9 ± 1.9 µM | lower level of ZIKV infection | > 250 µM | 92.3 ± 11.9 µM | 29.2% | 0.03% | – | – | –
2 | CCN(CC)CCCC(C)Nc1ccnc2cc(Cl)ccc12 (stereo not drawn) [chloroquine phosphate] | – | – | – | – | – | – | – | – | 35.3% | 2.4% | could effectively inhibit the replication | 1.13 µM | no toxic effect on cells at all concentrations
